Measurements from patent US20130022612A1, “METHODS AND COMPOSITIONS FOR MALARIA PROPHYLAXIS” (priority 2004, published 2013).
Non-standard residues stand in square brackets, D forms with d. Residues, ends and D or L forms follow the SMILES beside them. *: point of attachment. Sta = CC(C)C[C@H](N)[C@@H](O)CC(=O)O; Isovaleryl = CC(C)CC(=O)*

Columns and labels:
[1] = system: CSP processing in P. berghei sporozoites; assay: Pulse-chase metabolic labeling of CSP processing, P. berghei sporozoites; format: cell-based, Plasmodium berghei; settings: two hour chase at 28° C.; 10 mM E-64, 1 mM PMSF, 0.3 mM aprotinin, 100 mM 3,4 DCl, 75 mM leupeptin, 100 mM TLCK, 1 mM pepstatin, 1 mM 1,10 phenanthroline, 5 mM EDTA
Description: P. berghei sporozoites were incubated in Dulbecco's Modified Eagle Medium (DMEM; Invitrogen, Carlsbad, Calif.) without cysteine (Cys) and methionine (Met), containing 1% BSA and […] L-[35 S]-Cys/Met (Pro-Mix, Amersham Pharmacia) in a total volume of 200 μl for one hour at 28° C. They were then washed and resuspended in DMEM/BSA containing unlabeled Cys/Met at 28° C. for the indicated time in the presence or absence of the indicated protease inhibitor. Sporozoites were then lysed and CSP was immunoprecipitated and analyzed by autoradiography as outlined below.
When sporozoites were incubated with specific inhibitors, their concentrations were as follows: 10 […] E-64; 1 mM phenylmethylsulfonyl fluoride (PMSF); 0.3 mM aprotinin; 100 mM 3,4 DCl; 75 mM leupeptin; 100 mM TLCK; 1 mM pepstatin; 1 mM 1,10 phenanthroline; 5 mM EDTA; 0.5% sodium azide. To check for toxicity by propidium iodide (PI) staining, P. berghei sporozoites were incubated in the presence or absence of the various protease inhibitors for two hours at 28° C., PI was then added to a final concentration of […] for five minutes at 28° C. The sporozoites were washed and viewed under a fluorescent microscope.
Metabolically-labeled sporozoites were lysed in lysis buffer (1% Triton X-100, 50 mM Tris-HCl pH 8.0) with 150 mM NaCl containing a protease inhibitor cocktail (Complete Mini-Tablets, Roche) for one hour at 4° C. The lysates were incubated with mAb 3D11 conjugated to agarose overnight at 4° C. with agitation, and the beads were then washed sequentially with lysis buffer containing 150 mM NaCl, high salt buffer (500 mM NaCl in lysis buffer), lysis buffer without added NaCl, and pre-elution buffer (0.5% Triton X-100, 10 mM Tris-HCl pH 6.8). CSP was eluted with 1% SDS in 0.1 M glycine pH 1.8, neutralized with 1.5 M Tris-HCl pH 8.8, and run on a 7.5% SDS-polyacrylamide gel under nonreducing conditions.
P. berghei sporozoites were metabolically labeled as previously described (Bruna-Romero, O., et al.). Briefly, sporozoites were labeled in Dulbecco's Modified Eagle Medium containing 1% BSA (DMEM/BSA) without Cys/Met and with 400 μCi/ml L-[^35S]Cys/Met for one hour at 28° C. and chased in DMEM/BSA with Cys/Met at 28° C. in the presence of 10 μM E-64 or the indicated concentrations of allicin. Labeled sporozoites were lysed in 1% Triton X-100/150 mM NaCl/50 mM Tris-HCl pH 8.0 with protease inhibitors, and lysates were incubated with 3D11-sepharose overnight at 4° C. CSP was eluted with 1% SDS in 0.1 M glycine pH 1.8, neutralized with Tris-HCl pH 8.8, and run on a 7.5% SDS-polyacrylamide gel under nonreducing conditions. The gel was fixed, enhanced with Amplify (Amersham Pharmacia), dried and exposed to film.
P. berghei sporozoites were metabolically labeled in DMEM without Cys/Met, 1% BSA and 400 μCi/ml L-[^355]-Cys/Met for 1 hour at 28° C. and then kept on ice or chased at 28° C. for the indicated times. Details of this procedure are outlined in (Coppi et al., 2005). To investigate the kinetics of processing in the presence of hepatocytes, sporozoites were labeled as above, chased at 28° C. for 1 hour and then centrifuged (300×g) onto glass coverslips with Hepa 1-6 cells and incubated at 37° C. for 5, 15 or 30 minutes. To investigate the effect of antibodies on CSP cleavage, sporozoites were labeled as above and then chased for 2 hours in the presence of the indicated antibody. Monoclonal antibodies were used as purified antibodies at the indicated concentrations and the IgG fraction of the NH2-terminal antiserum was used after isolation by Protein A (Vivapure maxiprepA; Sartorius, Edgewood, N.Y.). In all cases, labeled sporozoites (with or without Hepa 1-6 cells) were lysed and labeled CSP was immunoprecipitated with mAb-3D11 conjugated to sepharose or in the case of P. falciparum CSP, with mAb-2A10 conjugated to sepharose, as previously described (Coppi et al., 2005). CSP was eluted from the beads, run on an SDS-PAGE gel which was enhanced, dried and exposed to film. […]

P. berghei sporozoites [2] = format: cell-based, Plasmodium berghei; settings: sporozoites preincubated two hours with inhibitor, Hepa 1-6 cells, one hour
Description: %invasion=total sporozites−extracellular sporozites×100/total sporozites
Invasion assays were performed as previously described (Pinzon-Ortiz, C., et al.) with some modifications. […] Cells were then washed, fixed, and sporozoites were stained with a double staining assay that distinguishes between intracellular and extracellular sporozoites (Renia, L., et al.). […]

[3] = system: CSP cleavage in P. berghei sporozoites; assay: Cell contact assay (CSP cleavage on contact with hepatocytes); format: cell-based, Plasmodium berghei
Description: Hepa 1-6 cells were seeded on glass coverslips at a density of 2×10^5 cells per coverslip and grown until confluent. P. berghei sporozoites were incubated in DMEM±10 mM E-64 at 4° C. for two hours. Thirty minutes before sporozoites were added to coverslips, Cytochalasin D (CD) was added to all samples (final concentration, […]). Sporozoites were centrifuged onto coverslips (1250×g) for five minutes at 4° C. Coverslips were then brought to 37° C. for two minutes, fixed with 4% paraformaldehyde and stained with either mAb 3D11 followed by anti-mouse Ig FITC or the N-terminal antiserum (1:100) followed by anti-rabbit Ig FITC. […] As a control, sporozoites were spun onto coverslips without cells using the protocol outlined above.

P. berghei sporozoites [4] = settings: sporozoites incubated with inhibitor for two hours, then metabolically labeled
Description: Panel A illustrates P. berghei sporozoites were metabolically labeled with [35 S]-Cys/Met and then washed and kept on ice (lane 1) or chased with cold medium for two hours at 28° C., in the absence (lane 2) or presence of the indicated protease inhibitors (lanes 3-11). After the chase, sporozoites were lysed, CSP was immunoprecipitated and analyzed by SDS-PAGE and autoradiography (abbreviations: Apr, aprotinin; DCl, 3,4 DCl; Leu, leupeptin; Pep, pepstatin; Phen, 1,10 phenanthroline). Panel B illustrates P. falciparum sporozoites were metabolically labeled as above and then kept on ice (lane 1) or chased with cold medium for ninety minutes in the absence (lane 2) or presence of E-64 (lane 3). Samples were processed as outlined above. Panel C illustrates P. berghei sporozoites were preincubated with buffer (lane 1) or the indicated compounds, washed, metabolically labeled with [^35S]-Cys/Met, lysed, and CSP was immunoprecipitated and analyzed by SDS-PAGE and autoradiography. (Abbreviations: Az=sodium azide).
In addition to the above, pulse-chase metabolic labeling experiments were performed with sporozoites of the human malaria parasite, Plasmodium falciparum. […] In order to insure that the protease inhibitors were not toxic to sporozoites, sporozoites were incubated with the various inhibitors for two hours and then propidium iodide (hereinafter, “PI”) was added, which is a fluorescent molecule that enters permeabilized cells.

[5] = biological target: Plasmodium berghei circumsporozoite protein (CSP), full-length, high molecular weight form (Plasmodium berghei) (UniProt P23093); assay: cell-based or functional assay

With c1cnc2c(c1)ccc1cccnc12 [1,10 phenanthroline] the “effect on CSP processing” value [1] was “no effect on CSP processing”.
In the case of O=c1oc(Cl)c(Cl)c2ccccc12 [3,4 DCl, 3,4-dichloroisocoumarin], the “effect on sporozoite invasion” value (P. berghei sporozoites [2]) is reported as “did not have significant inhibitory activity on invasion” and the “effect on CSP processing” value [1] is reported as “Neither compound had an effect on CSP processing”.
C=C1[C@@H](C)[C@H]2[C@H](Cc3ccccc3)NC(=O)[C@]23[C@H](OC(C)=O)/C=C/[C@@](C)(O)C(=O)[C@@H](C)C/C=C/[C@H]3[C@@H]1O [CD, cytochalasin D] was tested, and the “percentage staining with the N-terminal antiserum” value ([3]; experiment 1, no cells, visualized with α-N) was 85% ± 1.1, the “Number of Sporozoites Visualized” value ([3]; experiment 1, wildtype sporozoites, Hepa 1-6, visualized with 3D11) was 244 ± 3 and the “Number of Sporozoites Visualized” value ([3]; experiment 2, GFP sporozoites, Hepa 1-6, visualized by GFP) was 452 ± 8. The “Number of Sporozoites Visualized” value ([3]; experiment 2, GFP sporozoites, Hepa 1-6, visualized with α-N) was 98 ± 2.
In the case of O=C(O)CN(CCN(CC(=O)O)CC(=O)O)CC(=O)O [EDTA], the “effect on CSP processing” value [1] is reported as “no effect on CSP processing”.
With O=S(=O)(F)Cc1ccccc1 [PMSF, phenylmethylsulfonyl fluoride] the “CSP synthesis after incubation with inhibitor” value (P. berghei sporozoites [4]) was “not affected”, the “effect on sporozoite invasion” value (P. berghei sporozoites [2]) was “had inhibitory activity” and the “effect on CSP processing” value [1] was “inhibited CSP processing”.
With Cc1ccc(S(=O)(=O)N[C@@H](CCCCN)C(=O)CCl)cc1 [TLCK] the “effect on CSP processing” value [1] was “inhibited CSP processing”.
For CC(=O)N[C@@H](CC(C)C)C(=O)N[C@@H](CC(C)C)C(=O)N[C@H](C=O)CCCNC(=N)N [leupeptin], the “CSP synthesis after incubation with inhibitor” value (P. berghei sporozoites [4]) was “not affected”, the “effect on sporozoite invasion” value (P. berghei sporozoites [2]) was “had inhibitory activity” and the “effect on CSP processing” value [1] was “inhibited CSP processing”.
For CC(C)CC(=O)N[C@H](C(=O)N[C@H](C(=O)N[C@@H](CC(C)C)[C@@H](O)CC(=O)N[C@@H](C)C(=O)N[C@@H](CC(C)C)[C@@H](O)CC(=O)O)C(C)C)C(C)C [pepstatin] (Isovaleryl-VV[Sta]A[Sta]-OH), the “effect on sporozoite invasion” value (P. berghei sporozoites [2]) was “no effect on invasion” and the “effect on CSP processing” value [1] was “no effect on CSP processing”.
aprotinin was tested, and the “effect on sporozoite invasion” value (P. berghei sporozoites [2]) was “did not have significant inhibitory activity on invasion” and the “effect on CSP processing” value [1] was “Neither compound had an effect on CSP processing”.
With mAb 3D11 (antibody) the inhibition of CSP cleavage at 10 µg/ml, pulse-chase metabolic labeling [5] was 50 to 75%.
